A value given as a limit tells only on which side of the number the result lay.

This experiment deals with T1, TLR7 (Homo sapiens, UniProt Q9NYK1).
T1 construct: expressed in transfected cells; host or cells: HEK cells carrying TLR7 and an NF-kB reporter read with Steady-Glo
T1 sequence (Q9NYK1 27-1049): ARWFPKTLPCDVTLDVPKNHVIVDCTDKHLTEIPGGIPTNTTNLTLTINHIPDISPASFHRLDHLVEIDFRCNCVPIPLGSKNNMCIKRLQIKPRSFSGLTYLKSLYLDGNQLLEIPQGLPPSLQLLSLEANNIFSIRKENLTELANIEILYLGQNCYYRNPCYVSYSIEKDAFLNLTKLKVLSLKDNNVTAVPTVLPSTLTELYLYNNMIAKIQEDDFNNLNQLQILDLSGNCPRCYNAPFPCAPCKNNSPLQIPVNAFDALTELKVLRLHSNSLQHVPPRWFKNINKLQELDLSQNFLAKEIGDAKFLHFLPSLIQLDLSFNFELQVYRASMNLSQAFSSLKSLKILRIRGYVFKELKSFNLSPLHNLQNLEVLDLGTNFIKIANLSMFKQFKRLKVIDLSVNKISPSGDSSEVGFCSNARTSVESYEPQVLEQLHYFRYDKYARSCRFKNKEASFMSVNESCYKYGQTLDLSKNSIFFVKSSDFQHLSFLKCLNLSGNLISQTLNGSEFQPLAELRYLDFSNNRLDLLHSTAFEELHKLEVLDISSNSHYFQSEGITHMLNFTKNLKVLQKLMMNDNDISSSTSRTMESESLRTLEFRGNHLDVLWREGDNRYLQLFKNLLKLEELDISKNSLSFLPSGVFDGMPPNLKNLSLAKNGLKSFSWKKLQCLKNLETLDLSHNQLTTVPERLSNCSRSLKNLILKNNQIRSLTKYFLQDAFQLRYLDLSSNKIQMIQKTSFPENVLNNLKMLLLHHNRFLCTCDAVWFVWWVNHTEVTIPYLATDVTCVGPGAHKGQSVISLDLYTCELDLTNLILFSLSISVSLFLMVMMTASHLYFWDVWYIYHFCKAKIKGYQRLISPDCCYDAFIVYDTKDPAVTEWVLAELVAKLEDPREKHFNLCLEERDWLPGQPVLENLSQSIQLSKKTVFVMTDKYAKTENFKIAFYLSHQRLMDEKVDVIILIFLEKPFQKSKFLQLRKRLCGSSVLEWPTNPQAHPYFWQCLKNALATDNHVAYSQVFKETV
Nature of the experiment: HEK Cell Assay (TLR7/NFKb HEK reporter cells, Steady-Glo). Type of experiment: cell-based. The following applies: compound 30 min, then R*48 agonist 5 hours, Steady-Glo readout, read-out: Potency. As to the method:
Example 32: HEK Cell Assay
Into 384 CulturePlates (Corning 3707) was placed 5000 c/w of TLR7/NFKb HEK cells in 30 uL DMEM without Phenil red (gibco #31053) and 10% i.a. FCS and 2 mM L-ZGLutamin. The cells were incubated for 24 h at 37 degrees Celsius, 10% carbon dioxide and 90% relative humidity, 3 uL of controls, standards, and compounds were dispensed to wells, incubated for 30 min then 3 uL of R*48 agonist in 20 mM Hepes was added. After incubation for 5 hours, it was allowed to stand at room temperature for 15 min, 10 uL of Steady-Glo substrate reagent was added and shake assay plate for 5 min at 1500 rpm. The assay plate was allowed to sit for 30 min at room temperature and then read plate on EnVision.
Take `COCCN[C@@H]1C[C@H](C)C[C@H](c2ccc(C#N)c3nccnc23)C1` (relative stereo) [Compound 133, 8-[(cis-1,3,5)-3-[(2-methoxyethyl)amino]-5-methylcyclohexyl]quinoxaline-5-carbonitrile]: the IC50 is under 1000 nM.

On to `COCCN[C@@H]1C[C@H](C)C[C@@H](c2ccc(C#N)c3nccnc23)C1` (relative stereo) [Compound 134, 8-[(1,trans-3,cis-5)-3-[(2-methoxyethyl)amino]-5-methylcyclohexyl]quinoxaline-5-carbonitrile], for which the IC50 lay in the range of 1000 to 20000 nM.

Consider `CC1CC(c2ccc(C(F)(F)F)c3ncccc23)CN(C(=O)CCN2CCN(C)CC2)C1` (stereo in doubt) [Compound 45, 3-(4-Methyl-piperazin-1-yl)-1-[(3S,5S)-3-methyl-5-(8-trifluoromethyl-quinolin-5-yl)-piperidin-1-yl]-propan-1-one], for which the IC50 was 1000 to 20000 nM.

Consider `CC1CC(c2ccc(C#N)c3ncccc23)CN(C(=O)CC2CCN(C)CC2)C1` (stereo in doubt) [Compound 55, 5-{(3S,5R)-5-Methyl-1-[2-(1-methyl-piperidin-4-yl)-acetyl]-piperidin-3-yl}-quinoline-8-carbonitrile], for which the IC50 was under 1000 nM.

With `C[C@@H]1C[C@H](c2ccc(C#N)c3ncccc23)CN(C(=O)CC2CCN(C)CC2)C1` [Compound 1], the IC50 was under 1000 nM.

Regarding `C[C@@H]1CC(c2ccc(C#N)c3ncccc23)CN(C(=O)CC2CCN(C)CC2)C1` (some centres unmarked) [Compound 2], the IC50 is under 1000 nM.

`CC1CC(c2ccc(C(F)(F)F)c3ncccc23)CN(C(=O)CC2CCN(C)CC2)C1` (centres unmarked) [Compound 3, 2-(1-Methyl-piperidin-4-yl)-1-[3-methyl-5-(8-trifluoromethyl-quinolin-5-yl)-piperidin-1-yl]-ethanone]: the IC50 was under 1000 nM.

Turning to `CC1CC(c2ccc(C(F)(F)F)c3ncccc23)CN(C(=O)CCN2CCN(C)CC2)C1` (centres unmarked) [Compound 11, 3-(4-Methyl-piperazin-1-yl)-1-[3-methyl-5-(8-trifluoromethyl-quinolin-5-yl)-piperidin-1-yl]-propan-1-one], the IC50 was in the range of 1000 to 20000 nM.

For the compound `C[C@@H]1CC(c2ccc(C(F)(F)F)c3ncccc23)CN(C(=O)CCn2cccn2)C1` (some centres unmarked) [Compound 12], the IC50 was over 20000 nM.

Turning to `CC1C[C@@H](c2ccc(C(F)(F)F)c3ncccc23)CN(C(=O)CN2CCOCC2)C1` (some centres unmarked) [Compound 17], the IC50 was over 20000 nM.

As to `CC1CC(c2ccc(C(F)(F)F)c3ncccc23)CN(C(=O)CC2CC3CCC(C2)N3C)C1` (centres unmarked) [Compound 18, 2-(8-Methyl-8-aza-bicyclo[3.2.1]oct-3-yl)-1-[3-methyl-5-(8-trifluoromethyl-quinolin-5-yl)-piperidin-1-yl]-ethanone], the IC50 was under 1000 nM.

For `CC1C[C@@H](c2ccc(C#N)c3ncccc23)CN(C(=O)Cc2cccnc2)C1` (some centres unmarked) [Compound 21], the IC50 is over 20000 nM.

For `CC1CC(c2ccc(Cl)c3ncccc23)CN(C(=O)CC2CCN(C)CC2)C1` (centres unmarked) [Compound 22, 1-[3-(8-Chloro-quinolin-5-yl)-5-methyl-piperidin-1-yl]-2-(1-methyl-piperidin-4-yl)-ethanone], the IC50 was under 1000 nM.

Regarding `CC1CC(c2ccc(C#N)c3ncccc23)CN(C(=O)CCC2CCN(C)CC2)C1` (centres unmarked) [Compound 23], the IC50 is under 1000 nM.

Take `CC1C[C@H](c2ccc(C#N)c3ncccc23)CN(C(=O)CCc2cccnc2)C1` (some centres unmarked) [Compound 25]: the IC50 lay in the range of 1000 to 20000 nM.

Take `CC1C[C@H](c2ccc(C#N)c3ncccc23)CN(C(=O)CC(F)(F)F)C1` (some centres unmarked) [Compound 27]: the IC50 was over 20000 nM.

With `C[C@@H]1C[C@H](c2ccc(C#N)c3ncccc23)CN(C(=O)CC2CCN(C)C2)C1` (stereo partly drawn) [Compound 35, cis-5-Methyl-1-[2-(1-methyl-pyrrolidin-3-yl)-acetyl]-piperidin-3-yl-quinoline-8-carbonitrile], the IC50 is under 1000 nM.

For the compound `C[C@@H]1C[C@H](c2ccc(C(F)(F)F)c3ncccc23)CN(C(=O)CC2CCN(C)CC2)C1` [Compound 42, 2-(1-Methyl-piperidin-4-yl)-1-[(3R,5R)-3-methyl-5-(8-trifluoromethyl-quinolin-5-yl)-piperidin-1-yl]-ethanone], the IC50 is under 1000 nM.

As to `C[C@H]1C[C@@H](c2ccc(C(F)(F)F)c3ncccc23)CN(C(=O)CC2CCN(C)CC2)C1` [Compound 43, 2-(1-Methyl-piperidin-4-yl)-1-[(3S,5S)-3-methyl-5-(8-trifluoromethyl-quinolin-5-yl)-piperidin-1-yl]-ethanone], the IC50 lay in the range of 1000 to 20000 nM.

For `C[C@@H]1C[C@H](c2ccc(C(F)(F)F)c3ncccc23)CN(C(=O)CCN2CCN(C)CC2)C1` [Compound 44, 3-(4-Methyl-piperazin-1-yl)-1-[(3R,5R)-3-methyl-5-(8-trifluoromethyl-quinolin-5-yl)-piperidin-1-yl]-propan-1-one], the IC50 is under 1000 nM.

As for `CC(C)N1CCC(CC(=O)N2C[C@H](C)C[C@H](c3ccc(C#N)c4ncccc34)C2)CC1` [Compound 46, 5-{(3R,5R)-1-[2-(1-Isopropyl-piperidin-4-yl)-acetyl]-5-methyl-piperidin-3-yl}-quinoline-8-carbonitrile], the IC50 was under 1000 nM.

In the case of `CC(C)N1CCC(CC(=O)N2C[C@@H](C)C[C@@H](c3ccc(C#N)c4ncccc34)C2)CC1` [Compound 47, 5-{(3S,5S)-1-[2-(1-Isopropyl-piperidin-4-yl)-acetyl]-5-methyl-piperidin-3-yl}-quinoline-8-carbonitrile], the IC50 is 1000 to 20000 nM.

Take `COC(=O)CCN1CC(C)CC(c2ccc(C#N)c3ncccc23)C1` (centres unmarked) [Compound 48, 3-[3-(8-Cyano-quinolin-5-yl)-5-methyl-piperidin-1-yl]-propionic acid methyl ester]: the IC50 is over 20000 nM.

`CC1CC(c2ccc(C#N)c3ncccc23)CN(CCC(N)=O)C1` (centres unmarked) [Compound 49, 3-[3-(8-Cyano-quinolin-5-yl)-5-methyl-piperidin-1-yl]-propionamide]: the IC50 is over 20000 nM.

Turning to `CNC(=O)CCN1CC(C)CC(c2ccc(C#N)c3ncccc23)C1` (centres unmarked) [Compound 50], the IC50 was over 20000 nM.

In the case of `CC1CC(c2ccc(C#N)c3ncccc23)CN(CC2CCN(C)C2)C1` (centres unmarked) [Compound 51], the IC50 was under 1000 nM.

With `CC1CC(c2ccc(C#N)c3ncccc23)CN(CC2CCN(C)CC2)C1` (centres unmarked) [Compound 52], the IC50 is under 1000 nM.

For `C[C@@H]1C[C@@H](c2ccc(C#N)c3ncccc23)CN(C(=O)CC2CCN(C)CC2)C1` [Compound 54, 5-{(3S,5R)-5-Methyl-1-[2-(1-methyl-piperidin-4-yl)-acetyl]-piperidin-3-yl}-quinoline-8-carbonitrile], the IC50 is under 1000 nM.

Take `C[C@H]1C[C@@H](c2ccc(C#N)c3ncccc23)CN(C(=O)CC2CCN(C)CC2)C1` [Compound 56]: the IC50 fell in the range of 1000 to 20000 nM.

Regarding `CC1CC(c2ccc(C(F)(F)F)c3ncccc23)CN(c2ccon2)C1` (centres unmarked) [Compound 57, 5-(1-Isoxazol-3-yl-5-methyl-piperidin-3-yl)-8-trifluoromethyl-quinoline], the IC50 was over 20000 nM.

For `CC1CC(c2ccc(C(F)(F)F)c3ncccc23)CN(c2cnn(C)c2)C1` (centres unmarked) [Compound 58, 5-[5-Methyl-1-(1-methyl-1H-pyrazol-4-yl)-piperidin-3-yl]-8-trifluoromethyl-quinoline], the IC50 was in the range of 1000 to 20000 nM.

Turning to `CC1CC(c2ccc(C(F)(F)F)c3ncccc23)CN(c2ncco2)C1` (centres unmarked) [Compound 59, 5-(5-Methyl-1-oxazol-2-yl-piperidin-3-yl)-8-trifluoromethyl-quinoline], the IC50 lay within 1000 to 20000 nM.

Consider `C[C@@H]1C[C@@H](c2ccc(C#N)c3ncccc23)CN(C(=O)[C@@H](N)C2CC2)C1` [Compound 60, trans-1-((S)-2-Amino-2-cyclopropyl-acetyl)-5-methyl-piperidin-3-yl-quinoline-8-carbonitrile], for which the IC50 lay in the range of 1000 to 20000 nM.

As to `C[C@@H]1C[C@H](c2ccc(C#N)c3ncccc23)CN(C(=O)[C@@H](N)C2CC2)C1` [Compound 61], the IC50 is 1000 to 20000 nM.

On to `C[C@@H]1C[C@H](c2ccc(C#N)c3ncccc23)CN(C(=O)C[C@@H]2[C@H]3CN(C)C[C@@H]23)C1` [Compound 78], for which the IC50 was under 1000 nM.

Source of the values: US11512069B2, “TLR7/8 antagonists and uses thereof” (Merck Patent GmbH, priority 2016, dated 2022).
